Patent US20090299049A1, “Bicyclic Compounds and Their Use” (priority 2006, published 2009)

What was measured:
[1] = Optical properties: UV-visible spectra, fluorescence excitation and emission; type: physicochemical; details: for Stokes shift: (1/λex − 1 λem); for λem: fluorescence emission wavelength; for λex: fluorescence excitation wavelength; for Absorption maxima shift relative to compound 7a (parent): compared with the guanosine series; for HOMO-LUMO gap relative to compound 5a: inferred from UV-visible spectrum
Text: The optical properties of several novel chromophores were investigated. UV-visible spectra reveal an intense absorption in the UV region for all the compounds evaluated.

[2] = UV absorbance and fluorescence of ribonucleoside analogues in DMSO (molar extinction coefficient, quantum yield); type: physicochemical; details: for Quantum yield: relative to quinine sulphate and anthracene standards
Text: UV absorbance and fluorescence excitation and emission data were used to determine the molar extinction coefficient and fluorescence quantum yield of a several adenosine and guanosine ribonucleoside analogues in DMSO (see the Table below). The data acquired support the concept that the fluorescence properties of these analogues can be tuned by altering the electron-donating or electron-withdrawing R-group on the terminal phenylalkyne. Fourteen electron-donating or electron-withdrawing R-groups were coupled to purine bases at the 8-position. […] This makes the analogues extremely useful for the quantification of analogue-containing nucleic acid products in a DNA or RNA background. […] The position (ortho, meta or para) of the R-group on the phenyl ring can also be used to tune the fluorescent properties of the analogues. The ring position of the R-group has a smaller effect on the fluorescent properties of the analogues. Greater changes in the excitation/emission wavelength, molar extinction coefficient and quantum yield can be induced by changing the type of R-group (electron-donating vs. electron-withdrawing) as compared to the position of a R-group on the phenyl ring (ortho, meta or para). The quantum yields of the unphosphorylated analogues were measured relative to quinine sulphate and anthracene standards. […] This provides additional support for the idea that the purine bases can both push and pull electrons in π-conjugated systems.

Molecule	Stokes shift [1] [cm⁻¹]	λem [1] [nm]	λex [1] [nm]	Absorption maxima shift relative to compound 7a (parent) [1]	Wavelength at fluorescence emission maximum [2] [nm]	Wavelength at maximum in UV absorption [2] [nm]	Quantum yield [2] [%]	melting point	Molar absorption coefficient [2] [M⁻¹ cm⁻¹]	UV-visible spectrum shift relative to compound 5a (parent) [1]	HOMO-LUMO gap relative to compound 5a [1]
8-(1′-Ethynylferrocene)adenosine [Compound 6i]	3986	434	370	–	–	–	–	–	–	–	–
CCN(CC)c1ccc(C#Cc2nc3c(N)ncnc3n2[C@@H]2O[C@H](CO)[C@@H](O)[C@H]2O)cc1 [Compound 6e, 8-(4-N,N-Diethylaminephenylethynyl)adenosine]	4747	506	408	more significant differences	441	365	8.4	–	–	–	–
Nc1ncnc2c1nc(C#Cc1ccccc1)n2[C@@H]1O[C@H](CO)[C@@H](O)[C@H]1O [Compound 6a, 8-(Phenylethynyl)adenosine]	3383	397	350	–	398	322	49	168 to 170 °C (dec.)	–	–	–
Nc1ncnc2c1nc(C#Cc1ccc(Cl)cc1)n2[C@@H]1O[C@H](CO)[C@@H](O)[C@H]1O [Adenosine —Cl para]	–	–	–	–	410	326	46	–	23927	–	–
Nc1ncnc2c1nc(C#Cc1ccc(F)cc1)n2[C@@H]1O[C@H](CO)[C@@H](O)[C@H]1O [Adenosine —F para]	–	–	–	–	396	320	40	–	5558	–	–
CSc1ccc(C#Cc2nc3c(=O)[nH]c(N)nc3n2[C@@H]2O[C@H](CO)[C@@H](O)[C@H]2O)cc1 [Compound 5d, 8-(4-Methylsulfanylphenylethynyl)guanosine]	3264	426	374	–	425	343	4.5	214 to 216 °C (dec.)	19832	–	–
CC(=O)c1ccc(C#Cc2nc3c(N)ncnc3n2[C@@H]2O[C@H](CO)[C@@H](O)[C@H]2O)cc1 [Compound 6f, 8-(4′-Acetophenonephenylethynyl)adenosine]	6454	493	374	–	493	343	4.9	–	19639	–	–
COc1ccccc1C#Cc1nc2c(N)ncnc2n1[C@@H]1O[C@H](CO)[C@@H](O)[C@H]1O [Adenosine —OCH3 ortho]	–	–	–	–	429	333	21	–	–	–	–
CSc1ccc(C#Cc2nc3c(N)ncnc3n2[C@@H]2O[C@H](CO)[C@@H](O)[C@H]2O)cc1 [Compound 6d, 8-(4-Methylsulfanylphenylethynyl)adenosine]	1921	396	368	–	–	338	67	184 to 188 °C (dec.)	26019	–	–
COc1ccc(C#Cc2nc3c(=O)[nH]c(N)nc3n2[C@@H]2O[C@H](CO)[C@@H](O)[C@H]2O)cc1 [Compound 5c, 8-(4-Methoxyphenylethynyl)guanosine]	2749	402	362	–	398	330	1.2	220 to 224 °C (dec.)	22569	red-shifted	smaller HOMO-LUMO gap
CC(=O)c1ccc(C#Cc2nc3c(=O)[nH]c(N)nc3n2[C@@H]2O[C@H](CO)[C@@H](O)[C@H]2O)cc1 [Compound 5f, 8-(4′-Acetophenonephenylethynyl)guanosine]	6392	532	397	–	509	364	0.44	–	19589	–	–
Nc1ncnc2c1nc(C#Cc1cccc3ccccc13)n2[C@@H]1O[C@H](CO)[C@@H](O)[C@H]1O [Compound 6h, 8-(Napthylethynyl)adenosine]	3394	431	376	–	430	349	49	–	22970	–	–
8-(1′-Ethynylferrocene)guanosine [Compound 5i]	3537	439	380	–	–	–	–	–	–	–	–
Nc1nc2c(nc(C#Cc3cccc4ccccc34)n2[C@@H]2O[C@H](CO)[C@@H](O)[C@H]2O)c(=O)[nH]1 [Compound 5h, 8-(Napthylethynyl)guanosine]	4604	465	383	–	467	357	5.4	–	15141	–	–
Nc1ncnc2c1nc(C#Cc1cccc(C(F)(F)F)c1)n2[C@@H]1O[C@H](CO)[C@@H](O)[C@H]1O [Adenosine —CF3 meta]	–	–	–	–	421	326	21	–	19547	–	–
Cc1ccc(C#Cc2nc3c(=O)[nH]c(N)nc3n2[C@@H]2O[C@H](CO)[C@@H](O)[C@H]2O)cc1 [Compound 5b, 8-(4′-Methylphenylethynyl)guanosine]	3452	415	363	–	409	331	3.1	222 to 226 °C (dec.)	16591	–	–
Nc1nc2c(nc(C#Cc3ccc(Cl)cc3)n2[C@@H]2O[C@H](CO)[C@@H](O)[C@H]2O)c(=O)[nH]1 [Guanosine —Cl para]	–	–	–	–	431	338	1.9	–	23317	–	–
COc1ccc(C#Cc2nc3c(N)ncnc3n2[C@@H]2O[C@H](CO)[C@@H](O)[C@H]2O)cc1 [Compound 6c, 8-(4-methoxyphenylethynyl)-adenosine]	1933	380	354	more significant differences	380	326	24	198 to 202 °C (dec.)	18176	–	–
Nc1nc2c(nc(C#Cc3ccc(F)cc3)n2[C@@H]2O[C@H](CO)[C@@H](O)[C@H]2O)c(=O)[nH]1 [Guanosine —F para]	–	–	–	–	416	333	2.4	–	11304	–	–
Nc1nc2c(nc(C#Cc3ccccc3C(F)(F)F)n2[C@@H]2O[C@H](CO)[C@@H](O)[C@H]2O)c(=O)[nH]1 [Guanosine —CF3 ortho]	–	–	–	–	421	347	1.1	–	–	–	–
Nc1nc2c(nc(C#Cc3ccccc3)n2[C@@H]2O[C@H](CO)[C@@H](O)[C@H]2O)c(=O)[nH]1 [Compound 5a, 8-(Phenylethynyl)guanosine]	4196	438	370	–	416	330	2.7	234 to 236 °C (dec.)	–	–	–
COc1cccc(C#Cc2nc3c(N)ncnc3n2[C@@H]2O[C@H](CO)[C@@H](O)[C@H]2O)c1 [Adenosine —OCH3 meta]	–	–	–	–	400	324	52	–	19589	–	–
CCN(CC)c1ccc(C#Cc2nc3c(=O)[nH]c(N)nc3n2[C@@H]2O[C@H](CO)[C@@H](O)[C@H]2O)cc1 [Compound 5e, 8-(4-N,N-diethylaminephenylethynyl)guanosine]	5205	502	398	–	409	356	2.1	–	–	red-shifted	higher HOMO-LUMO gap
COc1cccc(C#Cc2nc3c(=O)[nH]c(N)nc3n2[C@@H]2O[C@H](CO)[C@@H](O)[C@H]2O)c1 [Guanosine —OCH3 meta]	–	–	–	–	420	334	3.6	–	20261	–	–
